Reference: patent publication US6511995B1, “Pyridine derivative and pharmaceutical containing the same” (Otsuka Pharmaceutical Co., Ltd., priority 1998, dated 2003)

Test system: Human Ito cells (LI90)
Test: Test for inhibition of collagen synthesis (3H proline labeling, hTGF β-1 treated cells)
Format: cell-based
Conditions: cultured with test compound in MEM containing 10 PM hTGF β-1 and 2% PDS for 16 hours, 3H proline labeling 24 hours, read-out: IC50 (μM), concentration at which the collagen synthesis is inhibited by 50% (T/C = 0.5)
Protocol: The pyridine derivatives (test compounds) obtained in Examples 1-2, 9-10, 21, 25, 29, 33-37, 39, 42, 44 and 46 were subjected to the following collagen synthesis test.
Test for Inhibition of Collagen Synthesis
Plasma obtained by centrifugation of rabbit blood was centrifuged again to remove platelets, and dialysis of the resulting supernatant was carried out against a Phosphate Buffered Saline (PBS) containing 0.01% (w/v) calcium chloride and 0.01% (w/v) magnesium chloride. Then, centrifugation was carried out to remove the residue and the resulting supernatant was immobilized at 56° C. for 30 minutes. The immobilized supernatant was sterilized by using a filter (0.22 μm) to prepare Plasma Derived Serum (PDS).
Human Ito cells (LI90) were plated in DULBECCO's modified eagle medium (DMEM) containing 10% fetal bovine serum and cultured in an incubator in the presence of 5% carbon dioxide (CO2) for 24 hours at 37° C., and then washed with PBS and cultured in Eagle's minimum essential medium (MEM) containing 2% PDS for additional 3 days. The cultured cells were washed with PBS and cultured together with the test compounds in MEM containing 10 PM hTGF (transforming growth factor) β-1 (containing 2% PDS based on the total amount of MEM) for 16 hours. Then, the cultured L190 was washed with PBS and RI (radioisotope) labeling was carried out in MEM containing ^3H proline as a radioactive labeled compound and 0.25 mM ascorbic acid for 24 hours. This cultured supernatant was precipitated by using trichloroacetic acid (TCA), and then the radioactivity in an […] fraction was measured and the resulting measured value was taken as collagen synthesis activity.
By comparing the radioactivity in the cultured supernatant containing the test compound with the radioactivity in the cultured supernatant containing no test compound (control), the collagen synthesis inhibition activity (T/C) was calculated by the following equation:
T/C=(radioactivity in cultured supernatant containing test compound)/(radioactivity in cultured supernatant of control).
IC50 was determined as the concentration (μM) at which the collagen systhesis can be inhibited by 50% (concentration of the test compound wherein C50=T/C corresponds to 0.5).

SMILES | IC50 [µM]
CC1(c2ccc(Oc3ccc(NC(=O)c4ccc(Cl)c(Cl)c4)cn3)cc2)OCCO1 [Example 33, 3,4-dichloro-N1-{6-[4-(2-methyl-1,3-dioxolane-2-yl)phenoxy]-3-pyridinyl}benzamide] | 3.88
CC(=O)c1ccc(Oc2ccc(C(=O)Nc3ccc(C(F)(F)F)cc3)cn2)cc1 [Example 44, 6-(4-acetylphenoxy)-N3-[4-(trifluoromethyl)phenyl]nicotinamide] | 0.92
O=C(Nc1ccc(C(F)(F)F)cc1)c1ccc(Oc2cccc3c2CCC3=O)nc1 [Example 39, 6-[(1-oxo-2,3-dihydro-1H-inden-4-yl)oxy]-N3-[4-(trifluoromethyl)phenyl]nicotinamide] | 0.55
O=C(Nc1ccc(Cl)c(Cl)c1)c1ccc(Oc2cccc3c2CCCC3=O)nc1 [Example 42, N3-(3,4-dichlorophenyl)-6-[(5-oxo-5,6,7,8-tetrahydro-1-naphthalenyl)oxy]nicotinamide] | 2.29
CC(=O)OC1=CCc2c(Oc3ccc(NC(=O)c4ccc(Cl)c(Cl)c4)cn3)cccc21 [Example 46, N1-{6-[(3-acetoxy-1H-inden-7-yl)oxy]-3-pyridinyl}-3,4-dichlorobenzamide] | 1.12
O=C(Nc1ccc(Oc2cccc3c2CCC3=O)nc1)c1ccc(C(F)(F)F)cc1 [Example 2, N1-{6-[(1-oxo-2,3-dihydro-1H-inden-4-yl)oxy]-3-pyridinyl}-4-(trifluoromethyl)benzamide] | 2.9
O=C(Nc1ccc(Oc2ccc3c(c2)C(=O)CCCC3)nc1)c1ccc(Cl)c(Cl)c1 [Example 10] | 2.6

More lines, now with the values ahead:

IC50 [µM] | SMILES
2.92 | CC(=O)c1ccc(Oc2ccc(NC(=O)c3ccc(Cl)c(Cl)c3)cn2)cc1C [Example 21, N1-[6-(4-acetyl-3-methylphenoxy)-3-pyridinyl]-3,4-dichlorobenzamide]
2.15 | O=C(Nc1ccc(Oc2cccc3c2CCC3O)nc1)c1ccc(Cl)c(Cl)c1 (stereo not shown) [Example 34, 3,4-dichloro-N1-{6-[(1-hydroxy-2,3-dihydro-1H-inden-4-yl)oxy]-3-pyridinyl}benzamide]
3.72 | CC(O)c1ccc(Oc2ccc(NC(=O)c3ccc(Cl)c(Cl)c3)cn2)cc1 (stereo not shown) [Example 36, 3,4-dichloro-N1-{6-[4-(1-hydroxyethyl)phenoxy]-3-pyridinyl}benzamide]
2.43 | O=C(Nc1ccc(Oc2cccc3c2CC=C3)nc1)c1ccc(Cl)c(Cl)c1 [Example 35, 3,4-dichloro-N1-{6-[(1H-inden-7-yl)oxy]-3-pyridinyl}benzamide]
2.34 | O=C(Nc1ccc(Oc2cccc3c2CCCC3=O)nc1)c1ccc(Cl)c(Cl)c1 [Example 9, 3,4-dichloro-N1-{6-[(5-oxo-5,6,7,8-tetrahydro-1-naphthalenyl)oxy]-3-pyridinyl}benzamide]
1.58 | Cc1cccc(Oc2ccc(NC(=O)c3ccc(Cl)c(Cl)c3)cn2)c1C [Example 29, 3,4-dichloro-N1-[6-(2,3-dimethylphenoxy)-3-pyridinyl]benzamide]
2.52 | O=C(Nc1ccc(Cl)c(Cl)c1)c1ccc(Oc2cccc3c2CCC3=O)nc1 [Example 37, N3-(3,4-dichlorophenyl)-6-[(1-oxo-2,3-dihydro-1H-inden-4-yl)oxy]nicotinamide]
2.14 | O=C(Nc1ccc(Oc2cccc3c2CCC3=O)nc1)c1ccc(Cl)c(Cl)c1 [Example 1, 3,4-dichloro-N1-{6-[(1-oxo-2,3-dihydro-1H-inden-4-yl)oxy]-3-pyridinyl}benzamide]
2.7 | O=C(Nc1ccc(Oc2cccc3c2CCC3)nc1)c1ccc(Cl)c(Cl)c1 [Example 25, 3,4-dichloro-N1-(6-[(2,3-dihydro-1H-inden-4-yl)oxy]-3-pyridinyl}benzamide]
